Test results reported in publication PMC6515931, “The Efflux Mechanism of Fraxetin-O-Glucuronides in UGT1A9-Transfected HeLa Cells: Identification of Multidrug Resistance-Associated Proteins 3 and 4 (MRP3/4) as the Important Contributors” (Frontiers in Pharmacology, 2019).
Several values for one entry are separate records, joined by “and”; a condition that tells them apart may be missing. Equal values may be shown once. Read-outs that look alike come from different tables or passages of the source. One block for each compound: values may come before it.

Legend:
[1] = target: α-glucosidase; set-up: method as in Milella et al., 2016; conditions: versus acarbose, a well-known α-glucosidase inhibitor; ref Milella et al., 2016; cited from earlier work
[2] = test system: BCRP; set-up: method as in Sjöstedt et al., 2016; conditions: ref Sjöstedt et al., 2016; cited from earlier work
[3] = test system: HeLa1A9 cells; assay: Toxicity toward HeLa1A9 cells during excretion experiments; format: cell-based, human; conditions: within the experimental concentration range
[4] = target: T1, BCRP (Homo sapiens, UniProt Q9UNQ0); assay: shRNA-mediated partial silencing of BCRP in HeLa1A9 cells, glucuronide excretion; format: cell-based; conditions: fraxetin 10 μM
T1 construct: BCRP, MRP1, MRP3, and MRP4 were detected in both wild-type HeLa and HeLa1A9 cells; endogenous in cells; host or cells: HeLa1A9 cells
T1 sequence (Q9UNQ0 1-655): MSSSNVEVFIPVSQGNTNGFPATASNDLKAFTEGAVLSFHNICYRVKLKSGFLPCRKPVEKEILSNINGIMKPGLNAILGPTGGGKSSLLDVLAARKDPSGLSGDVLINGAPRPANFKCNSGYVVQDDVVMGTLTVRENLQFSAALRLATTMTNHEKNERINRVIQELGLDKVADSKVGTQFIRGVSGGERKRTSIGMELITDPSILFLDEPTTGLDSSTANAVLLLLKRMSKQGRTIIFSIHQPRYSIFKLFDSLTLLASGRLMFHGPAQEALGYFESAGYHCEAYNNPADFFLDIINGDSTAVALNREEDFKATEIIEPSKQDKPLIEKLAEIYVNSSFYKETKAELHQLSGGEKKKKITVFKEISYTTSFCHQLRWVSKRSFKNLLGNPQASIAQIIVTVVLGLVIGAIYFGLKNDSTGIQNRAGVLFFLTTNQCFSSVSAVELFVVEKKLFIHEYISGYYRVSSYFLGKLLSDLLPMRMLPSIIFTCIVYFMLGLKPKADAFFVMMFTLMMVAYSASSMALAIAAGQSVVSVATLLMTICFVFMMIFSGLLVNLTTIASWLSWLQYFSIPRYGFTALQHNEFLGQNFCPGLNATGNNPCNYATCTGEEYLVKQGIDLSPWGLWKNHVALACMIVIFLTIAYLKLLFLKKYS
Procedure: (§1) The HeLa1A9 cells were pretreated and incubated with fraxetin solutions as reported previously ([Jiang et al., 2011]). Before assays, the HeLa1A9 cells were washed twice with prewarmed (37°C) Hank’s balanced salt solution (HBSS; pH = 7.4). After that, fraxetin (10 μM) dissolved in 2 mL of HBSS was incubated with the HeLa1A9 cells. At each time point (30, 60, 90, and 120 min), 200 μL of the culture supernatant from each well was collected as samples, and an equal volume of a loading media was used to replenish each well. Next, the collected samples were each mixed with 100 μL ice-cold acetonitrile. The supernatants were subjected to UHPLC analysis after centrifugation (10 min at 13800 × g).
(§2) In glucuronide excretion assays, biological inhibition mainly including shRNA-mediated partial silencing of BCRP and MRPs in HeLa cells was usually performed to evaluate the role of each efflux transporter ([Quan et al., 2015]; [Sun et al., 2015]; [Qin et al., 2018a]). Established shRNA_BCRP, shRNA_MRP1, shRNA_MRP3, and shRNA_MRP4 plasmids were transiently transfected into HeLa1A9 cells to develop the stably shRNA-transfected cell lines, named HeLa1A9-BCRP-shRNA cells, HeLa1A9-MRP1-shRNA, HeLa1A9-MRP3-shRNA, and HeLa1A9-MRP4-shRNA cells, respectively. […]
(§3) In addition, the excretion rate of intracellular glucuronides was calculated using Equ. […]

[5] = test system: cystathionine β-synthase; set-up: method as in Thorson et al., 2013; conditions: cystathionine β-synthase inhibitor; ref Thorson et al., 2013; cited from earlier work
[6] = target: T2, MRP1 (Homo sapiens, UniProt P33527); assay: shRNA-mediated partial silencing of MRP1 in HeLa1A9 cells, glucuronide excretion; format: cell-based; conditions: fraxetin 10 μM
T2 construct: BCRP, MRP1, MRP3, and MRP4 were detected in both wild-type HeLa and HeLa1A9 cells; endogenous in cells
Procedure: as §1, §2, §3

[7] = test system: MRP2; set-up: method as in Sjöstedt et al., 2016; conditions: ref Sjöstedt et al., 2016; cited from earlier work
[8] = test system: UDP-glucuronosyltransferase 1A9 (UGT1A9); set-up: method as in Xia et al., 2014; conditions: ref Xia et al., 2014, cited from earlier work
[9] = set-up: method as in Wang H. et al., 2016; conditions: rats; after oral administration of fraxin 50 mg/kg; ref Wang H. et al., 2016; cited from earlier work
[10] = target: T3, HeLa1A9 cell lysate (Homo sapiens, UniProt O60656); assay: Glucuronidation kinetics by HeLa1A9 cell lysate; format: in vitro ADME; conditions: metabolite propofol-G
T3 sequence (O60656 26-530): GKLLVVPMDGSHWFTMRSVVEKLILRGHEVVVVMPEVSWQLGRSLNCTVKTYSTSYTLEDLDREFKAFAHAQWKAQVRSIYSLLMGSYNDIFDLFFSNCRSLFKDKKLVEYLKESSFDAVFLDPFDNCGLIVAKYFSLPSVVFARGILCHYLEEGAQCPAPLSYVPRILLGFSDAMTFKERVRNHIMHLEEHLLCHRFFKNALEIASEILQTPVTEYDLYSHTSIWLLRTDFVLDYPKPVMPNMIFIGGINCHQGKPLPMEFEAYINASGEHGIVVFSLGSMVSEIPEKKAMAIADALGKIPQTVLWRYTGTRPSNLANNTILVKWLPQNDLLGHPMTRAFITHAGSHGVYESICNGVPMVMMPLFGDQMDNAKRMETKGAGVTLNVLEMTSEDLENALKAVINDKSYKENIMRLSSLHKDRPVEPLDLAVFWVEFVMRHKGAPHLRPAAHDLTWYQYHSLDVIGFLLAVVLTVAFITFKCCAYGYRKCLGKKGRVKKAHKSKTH
Procedure: (§4) The incubation system was slightly modified on the basis of a previously published article ([Qin et al., 2018a]). […] After preincubation at 37°C for 5 min, UDPGA (3.5 mM) was added to the reaction system, and the mixture was incubated for another 30 min. These reactions were terminated by the addition of an equal volume of ice-cold acetonitrile. The mixed samples were centrifuged at 13800 × g for 10 min, and the supernatant was analyzed by ultra-high-performance liquid chromatography (UHPLC). All the experiments were conducted in triplicate.
The enzyme kinetic parameters were obtained by fitting appropriate kinetic models to the experimental data in GraphPad Prism V5 software (San Diego, CA, United States). The best model was selected based on visual inspection of the Eadie–Hofstee plots ([Qin et al., 2018b]). In brief, if the Eadie–Hofstee plot was linear, formation rates (V) of glucuronides at different substrate concentrations (C) were fitted to the standard equations (1): […]
Where Km is the Michaelis–Menten constant, and Vmax is the maximum rate of glucuronidation. The intrinsic clearance (CLint) was computed as Vmax/Km.

[11] = target: T4, UGT1A9 (Homo sapiens, UniProt O60656); assay: Inhibition of fraxetin-O-glucuronide formation by selective UGT1A9 inhibitors; format: biochemical; set-up: purchased Corning Biosciences; conditions: fraxetin 4 and 20 μM; magnolol 1 μM, niflumic acid 10 μM, androsterone 10 μM
T4 sequence (O60656 26-530): T3 sequence (O60656 26-530)
Procedure: as §4
(§5) Other detailed operations were the same as described above.

[12] = target: T4, UGT1A9; assay: Effect of Ko143 and MK571 on fraxetin-O-glucuronidation activity of UGT1A9; conditions: Ko143 20 μM
Procedure: as §4, §5

[13] = target: T3, HeLa1A9 cell lysate; assay: Effect of Ko143 and MK571 on fraxetin-O-glucuronidation activity of HeLa1A9 cell lysate; format: biochemical; conditions: Ko143 20 μM
Procedure: as §4, §5

T2 sequence (P33527 whole entry): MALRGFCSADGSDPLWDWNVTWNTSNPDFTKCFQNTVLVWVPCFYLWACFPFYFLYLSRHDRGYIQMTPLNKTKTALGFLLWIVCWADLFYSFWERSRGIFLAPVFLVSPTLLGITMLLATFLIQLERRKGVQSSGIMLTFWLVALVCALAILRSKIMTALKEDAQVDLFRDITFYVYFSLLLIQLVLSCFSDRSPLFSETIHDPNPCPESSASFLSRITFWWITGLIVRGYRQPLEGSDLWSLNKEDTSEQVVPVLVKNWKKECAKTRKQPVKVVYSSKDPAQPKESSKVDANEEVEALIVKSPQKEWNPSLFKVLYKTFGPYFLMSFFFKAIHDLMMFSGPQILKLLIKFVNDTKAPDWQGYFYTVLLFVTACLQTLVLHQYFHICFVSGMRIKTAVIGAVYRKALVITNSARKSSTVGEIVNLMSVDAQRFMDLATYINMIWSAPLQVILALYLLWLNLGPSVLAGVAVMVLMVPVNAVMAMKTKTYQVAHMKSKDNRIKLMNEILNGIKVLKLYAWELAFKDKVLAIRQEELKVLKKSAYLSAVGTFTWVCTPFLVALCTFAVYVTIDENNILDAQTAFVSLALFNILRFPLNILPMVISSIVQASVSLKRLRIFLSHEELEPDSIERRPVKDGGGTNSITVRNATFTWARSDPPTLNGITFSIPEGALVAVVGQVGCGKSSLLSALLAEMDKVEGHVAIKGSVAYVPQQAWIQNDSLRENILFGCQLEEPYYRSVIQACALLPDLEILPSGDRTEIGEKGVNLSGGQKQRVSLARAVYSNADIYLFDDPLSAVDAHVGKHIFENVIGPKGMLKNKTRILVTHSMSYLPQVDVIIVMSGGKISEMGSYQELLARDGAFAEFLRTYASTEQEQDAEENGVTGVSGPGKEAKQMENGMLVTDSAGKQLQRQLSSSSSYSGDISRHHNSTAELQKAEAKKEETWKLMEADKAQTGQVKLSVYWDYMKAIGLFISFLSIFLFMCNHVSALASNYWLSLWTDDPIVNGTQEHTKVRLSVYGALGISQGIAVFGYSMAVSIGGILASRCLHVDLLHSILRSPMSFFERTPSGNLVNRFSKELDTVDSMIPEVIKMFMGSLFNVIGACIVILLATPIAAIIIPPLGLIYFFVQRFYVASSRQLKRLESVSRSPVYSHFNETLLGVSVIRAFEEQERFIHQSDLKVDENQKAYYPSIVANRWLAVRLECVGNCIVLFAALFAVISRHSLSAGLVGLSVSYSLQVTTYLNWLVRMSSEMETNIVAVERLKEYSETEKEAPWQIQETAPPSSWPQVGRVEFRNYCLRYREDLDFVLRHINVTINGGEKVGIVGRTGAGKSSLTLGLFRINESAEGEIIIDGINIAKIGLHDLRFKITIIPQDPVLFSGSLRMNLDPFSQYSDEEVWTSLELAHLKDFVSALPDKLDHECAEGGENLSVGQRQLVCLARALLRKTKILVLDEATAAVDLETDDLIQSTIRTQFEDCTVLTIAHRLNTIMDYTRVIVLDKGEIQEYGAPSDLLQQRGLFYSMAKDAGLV

Compound: COc1cc2ccc(=O)oc2c(O)c1O [fraxetin]
half-maximal inhibitory concentration (IC50) compared with acarbose [1]: significantly lower
inhibitory action on transporter [2]: absence of an inhibitory action
toxicity toward HeLa1A9 cells [3]: no significant toxicity
changes in excretion rates, intracellular glucuronides and fmet values [4]: did not cause any changes
IC50 [5]: 134 µM
changes in excretion rates, intracellular glucuronides and fmet values [6]: did not cause any changes
inhibitory action on transporter [7]: absence of an inhibitory action
CLint ([8]; formation of fraxetin-7-O-glucuronide by UGT1A9): 42 μL/min per milligram of protein
CLint ([8]; formation of fraxetin-8-O-glucuronide by UGT1A9): 300 μL/min per milligram of protein
half-life [9]: 11 h
maximal plasma concentration [9]: 2250 ng/mL and ~11 μM

Compound: CC(C)c1cccc(C(C)C)c1O [propofol]
Vmax [10]: 3.2 ± 0.2 (^aaa) pmol/min/mg

effect on formation of G1 and G2 [11]: significantly inhibited
Compound: O=C(O)c1cccnc1Nc1cccc(C(F)(F)F)c1 [niflumic acid]

Compound: COc1ccc2c3c([nH]c2c1)[C@H](CC(C)C)N1C(=O)[C@H](CCC(=O)OC(C)(C)C)NC(=O)[C@@H]1C3 [Ko143]
inhibition of fraxetin-O-glucuronidation, G1 [12]: 41.5%
inhibition of fraxetin-O-glucuronidation, G2 [12]: 24.9%
inhibition of fraxetin-O-glucuronidation, G1 [13]: 20.4%
inhibition of fraxetin-O-glucuronidation, G2 [13]: 29.3%
